{
  "source": "patent US20140171419A1",
  "about": "“ENHANCEMENT OF CELLULAR TRANSPLANTATION USING SMALL MOLECULE MODULATORS HEPATOCYTE GROWTH FACTOR (SCATTER FACTOR) ACTIVITY” (ANGION BIOMEDICA CORP, priority 2009, published 2014)",
  "tested_on": "primary human hepatocytes",
  "assay": "BrdU cell proliferation assay in cryopreserved primary human hepatocytes",
  "format": "cell-based",
  "conditions": "50 ng/ml, overnight treatment, 4 hour BrdU incubation; control 0.032±0.011",
  "procedure": "Cryopreserved primary human hepatocytes (CellzDirect catalog #[…], Lot # Hu0948) were plated on a collagen-coated 96 well plate according to the supplier's instructions and allowed to adhere and stabilize for 48 hours. Cells were treated with a compound of formula (II) embodied herein (10 μM final concentration) or HGF (50 ng/ml) overnight, and the next day, cell proliferation was determined using a BrdU assay (Chemicon, catalog #2750) according to the manufacturer's instructions, with a 4 hour incubation period of BrdU. Plates were read at 450 and 550 (background) nm and the difference was taken as an indicator of cell proliferation. Both test compound and HGF stimulated the BrdU incorporation in hepatocytes vs. control: test compound, 0.336±0.072; HGF, 0.388±0.134; and control, 0.032±0.011. Hepatocytes enhanced using the compounds of the invention can be used subsequently for cellular transplant into a human recipient, providing enhanced cell survival and numbers to increase the quality of the cells used in the transplant, the survival of cells after transplant and reduce the number of cells required to achieve the desired outcome of the transplant procedure and restoring or enhancing hepatic function in the recipient.",
  "data": [
    {"substance": "HGF: hepatocyte growth factor (scatter factor), a pleiotropic growth factor, used as positive comparator", "values": [
      {"measurement": "BrdU incorporation (difference of plate readings at 450 and 550 (background) nm, indicator of cell proliferation)", "result": "0.388±0.134"}
    ]}
  ]
}
